In publication PMC6378053, “Flavonol 7-O-Glucoside Herbacitrin Inhibits HIV-1 Replication through Simultaneous Integrase and Reverse Transcriptase Inhibition” (Evidence-based Complementary and Alternative Medicine : eCAM, 2019):

Key:
[1] = MTT cytotoxicity assay on MT-4 cells; conditions: human
Procedure: (§1) The permanent human T-cell lines MT-4 and MT-2 were maintained at 37°C in a humidified atmosphere containing 5% CO2 in RPMI 1640 (Sigma-Aldrich) medium supplemented with 10% heat-inactivated fetal bovine serum (Sigma-Aldrich), 100 IU/ml penicillin and 100 μg/ml streptomycin (Sigma-Aldrich). HIV-1 (HTLV-IIIB) was obtained from the culture supernatant of MT-4/HTLV-IIIB cells. The 50% HIV-1 tissue culture infectious dose (TCID50) on MT-4 cells was determined by virus yield assay.
(§2) To determine the in vitro cytotoxic effect of the compounds, viability of the treated and untreated cells was measured by a colorimetric assay as described earlier. Briefly, MT-4 and MT-2 cells were seeded into a 96-well plate at a density of 15,000 cells/well in the presence of different concentrations of the compounds dissolved in dimethyl sulfoxide (DMSO). […] After 4 days of incubation, cell cultures were analyzed using MTT cell viability assay (Sigma-Aldrich) to monitor the reduction of 3-(4,5-dimethylthiazol-2-yl)-2,5-diphenyl-tetrazolium bromide (MTT) to a blue formazan product by metabolically active cells. To initiate the cell viability assay, 20 μl MTT (5 mg/mL dissolved in PBS) was added to each well. After 4 h incubation cell supernatant was removed and 100 μl DMSO per well was added. The absorbance was measured at 550 nm on a microplate reader after mixing the contents thoroughly. The cytotoxicity tests were implemented in two biological replicates.

[2] = MTT cytotoxicity assay on MT-2 cells; conditions: human
Procedure: as §1, §2

HIV-1 (HTLV-IIIB) = experiment: Cell-based antiviral assay, HIV-1 p24 core protein ELISA in supernatants of infected MT-4 and MT-2 cells; conditions: nontoxic concentrations (2.1 μM), 5 days of incubation
Procedure: MT-4 and MT-2 cells at a density of 15,000 cells/well were incubated in 96-well plates in the presence of compounds at 37°C in 5% CO2 for 5 days. Simultaneously, cells were exposed to HIV-1 (2,32∗10^2 TCID50/ml). Untreated and infected or AZT (3′-azido-3′-deoxythymidine)-treated cells were used as controls. After the incubation period, diluted culture supernatants were analyzed for HIV production by determining the amount of viral core protein using a p24 enzyme-linked immunosorbent assay (ELISA) kit (Fujirebio) according to manufacturer's instructions. The results were expressed relative to the control of untreated HIV-1 infected cells. The experiment was performed in four biological replicates. Statistical analysis was performed by one-way ANOVA followed by Bonferroni's post hoc test.

[3] = target: T1, recombinant HIV-1 integrase (IN) (Human immunodeficiency virus type 1 group M subtype B, UniProt P04585); experiment: HIV-1 integrase inhibition, IN assay kit; assay type: biochemical; conditions: 2.15 μM concentration
T1 construct: activity of recombinant HIV-1 reverse transcriptase (RT) and integrase (IN); purchased Express Biotech International
Procedure: (§3) Inhibitory effects of compounds on the HIV-1 reverse transcriptase and integrase activity were measured by a colorimetric RT kit (Roche Diagnostics) and IN assay kit (Express Biotech International) according to the instructions of the manufacturer. Reverse transcriptase assay measures the amount of labeled nucleotides incorporated during the transcription process of RNA. Nevirapine, a nonnucleoside RT inhibitor, was used as a positive control in the RT reaction. HIV-1 integrase assay measures the integrase activity after 3′-end processing of the HIV-1 LTR donor substrate DNA and catalyzing the strand-transfer recombination reaction to integrate the donor substrate DNA into the target substrate DNA. Sodium azide was applied as a positive control compound in the experiments measuring the integrase activity. The RT and IN inhibition assays were performed in two biological replicates. Statistical analysis was performed by one-way ANOVA followed by Bonferroni's post hoc test, and a planned comparison by unpaired T-test was also performed (see Figure 3(b)).

[4] = target: T2, recombinant HIV-1 reverse transcriptase (RT) (Human immunodeficiency virus type 1 group M subtype B, UniProt P04585); experiment: HIV-1 reverse transcriptase inhibition, colorimetric RT kit; assay type: biochemical; conditions: 21.5 μM concentration
T2 construct: activity of recombinant HIV-1 reverse transcriptase (RT) and integrase (IN); purchased Roche Diagnostics
Procedure: as §3

HIV [5] = tested on: HIV; parameters: method as in doi:10.3844/ajidsp.2009.135.141; conditions: normal peripheral blood mononuclear cells (PBMC); cited from earlier work
HIV-1 [6] = tested on: HIV-1; parameters: method as in PMID 25546350; conditions: C8166 cells; cited from earlier work
HIV-1 BaL, HIV-1 MN = tested on: HIV-1 BaL, HIV-1 MN; parameters: method as in PMID 25546350; conditions: TZM-bl cell plus HIV-1 BaL and H9, and PBMC plus HIV-1 MN; read-out: IC50 antiviral effect; cited from earlier work
HIV-1 [7] = tested on: HIV-1; parameters: method as in PMID 25546350; conditions: C8166 cells; cited from earlier work; remark: listed apart in the source
[8] = tested on: IN (strand transfer reaction); parameters: method as in PMID 12213478; conditions: in vitro; cited from earlier work
MT-2 cells = conditions: at concentrations as high as 800 μM; cited from earlier work
HIV [9] = tested on: HIV; parameters: method as in PMID 12213478; conditions: MT-2 cells; read-out: IC50 HIV infection of MT-2 cells; cited from earlier work
IN = conditions: cited from earlier work

Structure (SMILES): O=c1c(O)c(-c2ccc(O)c(O)c2)oc2c(O)c(OC3OC(CO)C(O)C(O)C3O)cc(O)c12 (stereo not drawn) [Gossypitrin (2), gossypitrin]
- CC50 at 4 days ([1]; MT-4 cells): 101 µM
- CC50 at 4 days ([2]; MT-2 cells): 113 µM
- Effect on HIV-1 replication (p24 core protein levels) (HIV-1 (HTLV-IIIB)): ineffective

Structure (SMILES): O=c1c(O)c(-c2ccc(O)cc2)oc2c(O)c(OC3OC(CO)C(O)C(O)C3O)cc(O)c12 (stereo not drawn) [Herbacitrin (1), herbacitrin]
- CC50 at 4 days ([1]; MT-4 cells): 27.8 µM
- Inhibition of HIV-1 integrase activity ([3]; listed as Herbacitrin): active
- Inhibition of HIV-1 integrase activity ([3]; listed as herbacitrin): inhibited
- Inhibition of HIV-1 reverse transcriptase activity ([4]; listed as Herbacitrin): inhibit
- Inhibition of HIV-1 reverse transcriptase activity ([4]; listed as herbacitrin): significantly inhibited
- CC50 at 4 days ([2]; MT-2 cells): 63.6 µM
- Effect on HIV-1 replication (p24 core protein levels) (HIV-1 (HTLV-IIIB)): reduced HIV-1 replication

Structure (SMILES): O=c1c(O)c(-c2ccc(O)c(O)c2)oc2cc(O)cc(O)c12 [Quercetin (3), quercetin]
- CC50 at 4 days [1]: 108 µM
- Anti-HIV activity (HIV replication, virus infectivity) (HIV [5]): significant anti-HIV activity
- EC50 protection of HIV-1 induced cytopathic effects (HIV-1 [6]): 23.2 µg/mL
- IC50 (HIV-1 BaL, HIV-1 MN): 29.8 to 89 µM
- CC50 at 4 days [2]: 157 µM
- EC50 inhibition of syncytium formation (HIV-1 [7]): 42.55 µg/mL
- Effect on HIV-1 replication (p24 core protein levels) (HIV-1 (HTLV-IIIB)): reduced HIV-1 replication

Structure (SMILES): O=c1cc(-c2ccc(O)c(O)c2)oc2cc(O[C@@H]3O[C@H](CO)[C@@H](O)[C@H](O)[C@H]3OS(=O)(=O)O)cc(O)c12 [Thalassiolin A]
- Inhibitory concentration against the strand transfer reaction [8]: submicromolar
- Cytotoxicity (MT-2 cells): no cytotoxicity
- IC50 (HIV [9]): ~30 µM

Structure (SMILES): O=c1c(O)c(-c2ccc(O)c(O)c2)oc2cc(O)c(O)c(O)c12 [quercetagetin, quercetagetin (6-hydroxyquercetin)]
- Inhibition of viral cleavage and integration (IN): strong inhibitor
